Publication PMC7998731, “Pharmacokinetic Characterization of Supinoxin and Its Physiologically Based Pharmacokinetic Modeling in Rats” (Pharmaceutics, 2021)
Values joined by “and” are separate entries in the source; they are usually repeats but may differ in a detail not shown here. Equal values may be shown once. Read-outs that look alike come from different tables or passages of the source.

Assays:
[1] = cited from earlier work; for Plasma concentration, Mean: fasted male SD rats, intravenous 1 mg/kg, ref 15 (Table 1 footnote)
[2] = Determination of urinary and fecal excretion in rats; assay type: in vivo; details: 5 mg/kg; for Fecal excretion, Amount / Fecal excretion, Fraction Excreted (unchanged) / Urinary excretion, Amount / Urinary excretion, Fraction Excreted (unchanged): 0–48 h
Description: Supinoxin was administered to male SD rats (n = 3–4) at a dose of 5 mg/kg either intravenously (through the tail vein) or by oral gavage, following which rats were kept in metabolic cages and urine and feces samples were collected over the following time intervals: 0–2, 2–4, 4–6, 6–10, 10–24, 24–36, and 36–48 h for urine; 0–10, 10–24, 24–36, and 36–48 h for feces.
The metabolic cages were rinsed with distilled water, and residues were added to the urine samples at 48 h. To extract the supinoxin present in the feces, samples were homogenized with a blender mixer and shaken vigorously for 4 h with 50% methanol.
The amount of drug excreted in urine or feces (Ae) and the dose fractions excreted unchanged in urine or feces (fe) were calculated as:Ae = Cobs, urine or feces × Vurine or feces(2) fe = Ae/Dose(3)
The urinary and fecal clearances of supinoxin were calculated as:CLurine or feces = Ae, urine or feces/AUC(4)

[3] = In vivo pharmacokinetic study, oral administration to rats; details: Sprague-Dawley, rat, plasma; for concentration at 0.25 h / concentration at 0.5 h / concentration at 1 h / concentration at 3 h / concentration at 7 h / concentration at 10 h / concentration at 24 h: fasted male SD rats; for concentration at 24 h: BQL treated as 0; for AUC(0-inf) / AUC(0-t) / Cmax / MRT / Tmax / half-life / bioavailability: male, rats, oral
Description: Male Sprague Dawley (SD) rats, 6–7 weeks old, were purchased from Orient Bio Inc. (Seongnam-si, Korea) and were used in all in vivo studies. The animals were maintained at a temperature of 20–26 °C with a 12 h light/dark cycle and a relative humidity of 40–60%. The experimental protocols involving the animals used in this study were reviewed by the Animal Care and Use Committee of Chungnam National University (CNU-00576, Daejeon, Korea; approval date: 13 March 2015).
Supinoxin was dissolved in a vehicle (10% DMSO, 10% Tween 80, 40% PEG 400, and 40% saline). In single doses, the administration routes involved an intravenous bolus via the tail vein (n = 4–5) and an oral gavage dose (n = 4–5). The dosing volume was 2 mL per kg body weight, and the dosing range was 0.5, 1, and 5 mg/kg. Blood samples (200 µL) were collected from the jugular vein at 0.083 (intravenous only), 0.25, 0.5, 1, 3, 7, 10, and 24 h after dosing, using a heparinized syringe to ensure anticoagulation. During blood sampling, rats were placed in a restrainer (Nagai-CFS-1S; NMS, Tokyo, Japan). For the separation of plasma fractions, all blood samples were centrifuged at 17,600× g for 5 min. The samples were stored at −20 °C until analysis. When obtaining tissue concentrations to calculate the tissue-to-plasma partition ratio was necessary, samples of nine tissues (i.e., adipose, heart, muscle, kidney, brain, liver, spleen, gut, and lung) were collected at 0.33, 1, 3, 7, and 24 h after 5 mg/kg intravenous administration of supinoxin (n = 3).
The peak concentration (Cmax) and the time to reach Cmax (Tmax) were obtained directly from individual plasma concentration–time profiles. Linear trapezoidal rule was used to calculate the areas under the plasma concentration–time curve (AUC) and the first moment curve (AUMC), while the terminal half-life (T1/2) was calculated using 0.693/λ, where λ represents the slope of the log-transformed concentration–time profiles of the terminal phase. The systemic clearance (CL), mean residence time (MRT), and the volume of the distribution at the steady state (Vss) were calculated as follows: dose/AUC, AUMC/AUC, and MRT·CL, respectively. To calculate the absolute oral bioavailability (F) we divided the AUC obtained following oral administration by that obtained following intravenous administration of the respective dose.
To determine supinoxin concentrations in plasma, feces, and urine, we used a previously reported LC–MS/MS assay using DGG-200064 as an internal standard (IS). Briefly, an aliquot (50 μL) of IS solution (concentration 100 ng/mL) was added to 50 μL of plasma, feces, or urine sample, following which 400 μL of acetonitrile containing 0.1% formic acid was added. After vigorous vortexing for 10 min, the extract was centrifuged at 17,600 rpm for 10 min at 4 °C, and the supernatant was placed in an autosampler vial. An aliquot of 5 µL was then injected into the analytical column for chromatographic separation; the analytical system consisted of a 1200 series HPLC system (Applied Biosystems, Foster City, CA, USA) equipped with a turbo-electrospray interface in positive ionization mode.

[4] = rats, intravenous, 1 mg/kg, Jeong, J.-W. et al., 2017

## COc1cc(OC)cc(N2CCN(C(=O)Nc3nc4cc(F)ccc4nc3OC)CC2)c1 [supinoxin, 1-(3,5-Dimethoxyphenyl)-4-[(6-Fluoro-2-Methoxyquinoxalin-3-yl) Aminocarbonyl] Piperazine]
[1]; 0.083 h
  Plasma concentration, Mean: 860.2 ng/mL
[1]; 0.25 h
  Plasma concentration, Mean: 682.2 ng/mL
[1]; 0.5 h
  Plasma concentration, Mean: 501.6 ng/mL
[1]; 1 h
  Plasma concentration, Mean: 292.4 ng/mL
[1]; 3 h
  Plasma concentration, Mean: 194.2 ng/mL
[1]; 7 h
  Plasma concentration, Mean: 52.3 ng/mL
[1]; 10 h
  Plasma concentration, Mean: 20.8 ng/mL
[1]; 24 h, BQL treated as 0
  Plasma concentration, Mean: 0.5 ng/mL
[1]; [4]
  AUCinf: 1780 ± 300 ng·h/mL
  AUClast: 1750 ± 320 ng·h/mL
  T1/2: 2.64 ± 0.39 h
  Vss: 2.04 ± 0.316 L/kg
[2]; IV
  Fecal excretion, Amount: 142 ± 21.6 µg
  Fecal excretion, Fraction Excreted (unchanged): 16.5% and 16.5 ± 2.82%
  Urinary excretion, Amount: 0.27 ± 0.06 µg
  Urinary excretion, Fraction Excreted (unchanged): 0.03% and 0.03 ± 0.01%
[2]; PO
  Fecal excretion, Amount: 412 ± 209 µg
  Fecal excretion, Fraction Excreted (unchanged): 46.8% and 46.8 ± 24.5%
  Urinary excretion, Amount: 0.06 ± 0.04 µg
  Urinary excretion, Fraction Excreted (unchanged): 0.01% and 0.01 ± 0.01%
[2]; male, Sprague-Dawley (SD), rat, urine, both intravenous and oral administration, read-out: total urinary recovery of unchanged supinoxin
  dose excreted: < 0.1%
[3]; oral 0.5 mg/kg
  concentration at 0.25 h: 51 ng/mL
  concentration at 0.5 h: 99.6 ng/mL
  concentration at 1 h: 99.6 ng/mL
  concentration at 3 h: 58 ng/mL
  concentration at 7 h: 13.1 ng/mL
  concentration at 10 h: 5 ng/mL
  concentration at 24 h: 0 ng/mL
[3]; oral 5 mg/kg
  concentration at 0.25 h: 474 ng/mL
  concentration at 0.5 h: 676 ng/mL
  concentration at 1 h: 800 ng/mL
  concentration at 3 h: 480 ng/mL
  concentration at 7 h: 113 ng/mL
  concentration at 10 h: 40.4 ng/mL
  concentration at 24 h: 0.5 ng/mL
[3]; 0.5 mg/kg
  AUC(0-inf): 418 ± 133 ng·h/mL
  AUC(0-t): 402 ± 130 ng·h/mL
  Cmax: 108 ± 36 ng/mL
  MRT: 2.99 ± 0.71 h
  Tmax: 0.8 ± 0.274 h
  half-life: 2 ± 0.5 h
[3]; 0.5 mg/kg, read-out: F (absolute oral bioavailability)
  bioavailability: 57.4 ± 18.3%
[3]; 5 mg/kg
  AUC(0-inf): 3510 ± 1420 ng·h/mL
  AUC(0-t): 3480 ± 1450 ng·h/mL
  Cmax: 823 ± 340 ng/mL
  MRT: 3.17 ± 0.36 h
  Tmax: 0.75 ± 0.289 h
  half-life: 2.02 ± 0.33 h
[3]; 5 mg/kg, read-out: F (absolute oral bioavailability)
  bioavailability: 57.2 ± 23.1%
[3]; range over doses 0.5–5 mg/kg, read-out: absolute oral bioavailability
  bioavailability: 56.9 to 57.4%
